The NIST ThermoML archive (doi:10.1021/acs.jced.5b00018)

Assays:
[1] = refractive index (Na D-line) (dimensionless); wn = mass fraction of the nth substance listed; settings: 100 kPa, Liquid, Standard Abbe refractometry
[2] = refractive index (Na D-line) (dimensionless); settings: 100 kPa, Liquid, Standard Abbe refractometry

[Ca+2].[Cl-].[Cl-] [calcium chloride] + O
refractive index, [1]
Settings	293.15 K	298.15 K	303.15 K	308.15 K	313.15 K	318.15 K
w1 = 0.01	1.3356	1.3353	1.3349	1.3344	1.3339	1.3331
w1 = 0.05	1.3442	1.3437	1.3431	1.3426	1.342	1.3414
w1 = 0.1	1.3568	1.3561	1.3555	1.3551	1.3546	1.3539
w1 = 0.15	1.3689	1.3686	1.368	1.3671	1.3667	1.3662
w1 = 0.2	1.3818	1.3814	1.3807	1.3802	1.3795	1.3789
w1 = 0.25	1.3945	1.3943	1.394	1.3933	1.3926	1.392

CCOC(C)=O [ethyl acetate] + O
refractive index, [1]
Settings	293.15 K	298.15 K	303.15 K	308.15 K	313.15 K	318.15 K
w1 = 0.009	1.3341	1.3335	1.3331	1.3327	1.3321	1.3317
w1 = 0.027	1.3352	1.3348	1.3342	1.3337	1.3332	1.3326
w1 = 0.045	1.3368	1.3364	1.3358	1.3353	1.3346	1.3342
w1 = 0.064	1.3384	1.338	1.3377	1.3368	1.3358	1.3352
w1 = 0.082	1.3391	1.3388	1.3383	1.3378	1.3373	1.3365

[Cl-].[K+] [potassium chloride] + O
refractive index, [1]
Settings	293.15 K	298.15 K	303.15 K	308.15 K	313.15 K	318.15 K
w1 = 0.01	1.3349	1.3345	1.334	1.3335	1.333	1.332
w1 = 0.05	1.3405	1.3401	1.3396	1.339	1.3384	1.3379
w1 = 0.1	1.3486	1.348	1.3476	1.347	1.3464	1.346
w1 = 0.15	1.3577	1.3571	1.3566	1.356	1.3554	1.355

[Cl-].[Na+] [sodium chloride] + O
refractive index, [1]
Settings	293.15 K	298.15 K	303.15 K	308.15 K	313.15 K	318.15 K
w1 = 0.01	1.3365	1.3359	1.3354	1.3346	1.3339	1.3333
w1 = 0.05	1.3434	1.3428	1.3422	1.3414	1.3407	1.3398
w1 = 0.1	1.3521	1.3514	1.3508	1.3502	1.3495	1.3485
w1 = 0.15	1.361	1.3604	1.3596	1.359	1.358	1.3572
w1 = 0.2	1.3702	1.3692	1.3683	1.3678	1.367	1.3661
w1 = 0.25	1.3795	1.3788	1.378	1.3773	1.3767	1.3757

O [water]
[2]
Settings	refractive index
293.15 K	1.3335
298.15 K	1.333
303.15 K	1.3323
308.15 K	1.332
313.15 K	1.3316
318.15 K	1.3312

O [water] + CCOC(C)=O
[1], w2 = 0
Settings	refractive index
293.15 K	1.3335
298.15 K	1.333
303.15 K	1.3323
308.15 K	1.332
313.15 K	1.3316
318.15 K	1.3312

O [water] + OC[C@H]1O[C@H](O)[C@H](O)[C@@H](O)[C@@H]1O
[1], w2 = 0
Settings	refractive index
293.15 K	1.3335
298.15 K	1.333
303.15 K	1.3323
308.15 K	1.332
313.15 K	1.3316
318.15 K	1.3312

O [water] + [Ca+2].[Cl-].[Cl-]
[1], w2 = 0
Settings	refractive index
293.15 K	1.3335
298.15 K	1.333
303.15 K	1.3323
308.15 K	1.332
313.15 K	1.3316
318.15 K	1.3312

O [water] + [Cl-].[K+]
[1], w2 = 0
Settings	refractive index
293.15 K	1.3335
298.15 K	1.333
303.15 K	1.3323
308.15 K	1.332
313.15 K	1.3316
318.15 K	1.3312

O [water] + [Cl-].[Na+]
[1], w2 = 0
Settings	refractive index
293.15 K	1.3335
298.15 K	1.333
303.15 K	1.3323
308.15 K	1.332
313.15 K	1.3316
318.15 K	1.3312

OC[C@H]1O[C@H](O)[C@H](O)[C@@H](O)[C@@H]1O [α-D-glucose] + O
refractive index, [1]
Settings	w1 = 0.01	w1 = 0.05	w1 = 0.1	w1 = 0.15	w1 = 0.2	w1 = 0.3	w1 = 0.4	w1 = 0.5
293.15 K	1.336	1.3412	1.3481	1.3553	1.3623	1.3775	1.3947	1.4119
298.15 K	1.3355	1.3406	1.3475	1.3548	1.3617	1.3768	1.3939	1.4106
303.15 K	1.3349	1.3401	1.3469	1.3542	1.361	1.3763	1.3932	1.41
308.15 K	1.3345	1.3395	1.3463	1.3535	1.3604	1.3757	1.3925	1.4098
313.15 K	1.3337	1.3388	1.3455	1.3527	1.3596	1.3747	1.3919	1.4086
318.15 K	1.3329	1.3379	1.3447	1.3519	1.3588	1.3739	1.3907	1.4073
